Read-outs that look alike come from different tables or passages of the source.
Legend:
[1] = tested on: cytosolic labile heme in P. falciparum; assay type: cell-based, Plasmodium falciparum
P. falciparum = assay: Growth inhibition of P. falciparum lines by chloroquine; assay type: cell-based; conditions: Plasmodium falciparum

SMILES	average Δ[heme], increase in labile heme concentration vs untreated control ([1]; 60 nM chloroquine, four independent experiments, P = 0.002)	lower bound on labile cytosolic heme level ([1]; 60 nM chloroquine, assuming no chloroquine in the cytosol) [µM]	upper bound on labile cytosolic heme level ([1]; 60 nM chloroquine, assuming ≥1:1 chloroquine:heme in the cytosol) [µM]	IC50 (P. falciparum; read-out: chloroquine IC50 (95% CI), parasites expressing CH49Y) [nM]	IC50 (P. falciparum; read-out: chloroquine IC50 (95% CI), parental NF54attB line) [nM]	change in labile heme concentration, treated vs untreated parasites ([1]; pyrimethamine 125 and 500 nM, 32 h)
CCN(CC)CCCC(C)Nc1ccnc2cc(Cl)ccc12 (stereo not drawn) [chloroquine]	+0.86 µM	~2.8	~7	10.3 to 11.3	8.2 to 9.7	
CCc1nc(N)nc(N)c1-c1ccc(Cl)cc1 [pyrimethamine]						No increase in labile heme concentration

Source: paper PMC5358388 (Proceedings of the National Academy of Sciences of the …, 2017)
